Assay results as given in patent US4112086A, “7β-Acylamino-3-(phosphonoalkyl and esterified phosphonoalkyl substituted tetrazolylthiomethyl)cephalosporins” (SmithKline Corporation, priority 1976, dated 1978).
≈ marks a conversion by molar mass, not a printed value. Counter-ions that a name gives are not always drawn. Like-named read-outs stand apart in the source and are kept apart here.

Legend:
[1] = tested on: Salmonella ATCC 12176; experiment: in vitro testing, minimum inhibitory concentration (MIC); format: cell-based
Experimental: (§1) The compounds of Formula I have anti-bacterial activity against both Gram-positive and Gram-negative organisms. Minimum inhibitory concentrations (MIC's) range from 0.1 to >200 μg/ml in in vitro testing. Test results for the compounds 7β-D-mandelamido-3-(1-diethoxyphosphinylmethyltetrazol-5-ylthiomethyl)-3-cephem-4-carboxylic acid sodium salt hydrate (Compound A), 7β-D-mandelamido-3-(1-ethoxyhydroxyphosphinylmethyltetrazol-5-ylthiomethyl)-3-cephem-4-carboxylic acid disodium salt hydrate (Compound B) and 7β-D-mandelamido-3-(1-phosphonomethyltetrazol-5-ylthiomethyl)-3-cephem-4-carboxylic acid (Compound C) are given below. Results shown in parenthesis are those obtained for cefazolin.

[2] = tested on: Pseudo. aerug. HH 63; experiment: as above; format: cell-based
Experimental: as §1

[3] = tested on: Kleb. pneumo. SK 1200; experiment: as above; format: cell-based
Experimental: as §1

[4] = tested on: Entero. aerog. ATCC 13048; experiment: as above; format: cell-based
Experimental: as §1

[5] = tested on: E. coli HH 33779; experiment: as above; format: cell-based
Experimental: as §1

[6] = tested on: S. villaluz SK 70390; experiment: as above; format: cell-based; details: cefazolin values in parenthesis
Experimental: as §1

[7] = tested on: Proteus morgani 179; experiment: as above; format: cell-based; details: cefazolin values in parenthesis
Experimental: as §1

[8] = tested on: E. coli SK 12140; experiment: as above; format: cell-based
Experimental: as §1

[9] = tested on: S. aureus SK 23390; experiment: as above; format: cell-based
Experimental: as §1

[10] = tested on: Entero. cloacae HH 31254; experiment: as above; format: cell-based; details: Enterobacter cloacae, HH31254
Experimental: as §1

[11] = tested on: Strep. faecalis HH 34358; experiment: as above; format: cell-based
Experimental: as §1

[12] = tested on: Proteus mirabilis 444; experiment: as above; format: cell-based
Experimental: as §1

[13] = tested on: Serratia marc. ATCC 13880; experiment: as above; format: cell-based
Experimental: as §1

[14] = tested on: Kleb. pneumo. SK 4200; experiment: as above; format: cell-based; details: cefazolin values in parenthesis
Experimental: as §1

[15] = tested on: Kleb. pneumo. 4200; experiment: in vivo mouse protection test; details: sc
Experimental: (§2) 4200 upon subcutaneous injection; cefazolin gave results of 4.4 mg/kg against E. coli 12140 and 7.2 mg/kg against Kleb. pneumo. 4200 upon subcutaneous administration.

[16] = tested on: E. coli 12140; experiment: in vivo mouse protection test
Experimental: as §2

[17] = tested on: S. aureus SK 127; experiment: in vitro testing, minimum inhibitory concentration (MIC); format: cell-based; details: Staphylococcus aureus, SK127, cefazolin values in parenthesis
Experimental: as §1

[18] = Pseudo. aerug. HH 63, in vitro, cefazolin values in parenthesis, read-out: MIC
[19] = Kleb. pneumo. SK 1200, in vitro, cefazolin values in parenthesis, read-out: MIC
[20] = Entero. aerog. ATCC 13048, in vitro, cefazolin values in parenthesis, read-out: MIC
[21] = Escherichia coli, HH33779, E. coli HH 33779, cefazolin values in parenthesis, read-out: MIC
[22] = Escherichia coli, SK12140, E. coli SK 12140, in vitro, cefazolin values in parenthesis, read-out: MIC
[23] = Staphylococcus aureus, SK23390, S. aureus SK 23390, in vitro, cefazolin values in parenthesis, read-out: MIC
[24] = Entero. cloacae HH 31254, in vitro, cefazolin values in parenthesis, read-out: MIC
[25] = Enterococcus faecalis, HH34358, cefazolin values in parenthesis, read-out: MIC
[26] = Proteus mirabilis 444, cefazolin values in parenthesis, read-out: MIC
[27] = Salmonella, ATCC12176, Salmonella ATCC 12176, cefazolin values in parenthesis, read-out: MIC
[28] = Serratia, ATCC13880, Serratia marc. ATCC 13880, cefazolin values in parenthesis, read-out: MIC

Row | Compound | MIC ([6]; read-out: MIC) [µg/mL] | MIC [7] [µg/mL] | MIC [17] [µg/mL] | MIC [2, 18] [µg/mL] | MIC [3, 19] [µg/mL] | MIC [4, 20] [µg/mL] | MIC [5, 21] [µg/mL] | MIC [8, 22] [µg/mL] | MIC [9, 23] [µg/mL] | MIC [10, 24] [µg/mL] | MIC [11, 25] [µg/mL] | MIC [12, 26] [µg/mL] | MIC ([14]; read-out: MIC) [µg/mL] | MIC [1, 27] [µg/mL] | MIC ([7]; read-out: MIC) [µg/mL] | MIC [13, 28] [µg/mL] | other results
1 | CCOP(=O)(Cn1nnnc1SCC1=C(C(=O)[O-])N2C(=O)[C@@H](NC(=O)[C@H](O)c3ccccc3)[C@H]2SC1)OCC.O.[Na+] [Compound A, 7β-D-mandelamido-3-(1-diethoxyphosphinylmethyltetrazol-5-ylthiomethyl)-3-cephem-4-carboxylic acid sodium salt hydrate] | 50 | 3.1 |  |  |  |  |  |  |  |  |  |  |  |  |  |  | MIC ([1]; Salmonella ATCC 12176, cefazolin values in parenthesis, sodium salt hydrate): 1.6 µg/mL; MIC ([1]; Salmonella, ATCC12176, Salmonella ATCC 12176, cefazolin values in parenthesis): 3.1 µg/mL; MIC [2]: > 200 µg/mL; MIC [3]: 3.1 µg/mL; MIC [4]: 12.5 µg/mL; MIC ([5]; E. coli HH 33779, cefazolin values in parenthesis, sodium salt hydrate): 6.3 µg/mL; MIC ([5]; Escherichia coli, HH33779, E. coli HH 33779, cefazolin values in parenthesis): 12.5 µg/mL; MIC ([7]; sodium salt hydrate): 1.6 µg/mL; MIC ([8]; Escherichia coli, SK12140): 6.3 µg/mL; MIC ([9]; Staphylococcus aureus, SK23390): 0.8 µg/mL; MIC [10]: 3.1 µg/mL; MIC ([11]; Enterococcus faecalis, HH34358, cefazolin values in parenthesis): 12.5 µg/mL; MIC ([11]; cefazolin values in parenthesis, sodium salt hydrate): 25 µg/mL; MIC ([12]; Proteus mirabilis 444, cefazolin values in parenthesis, sodium salt hydrate): 1.6 µg/mL; MIC ([12]; Proteus mirabilis, 444, Proteus mirabilis 444, cefazolin values in parenthesis): 3.1 µg/mL; MIC ([13]; Serratia marc. ATCC 13880, cefazolin values in parenthesis, sodium salt hydrate): 12.5 µg/mL; MIC ([13]; Serratia, ATCC13880, Serratia marc. ATCC 13880, cefazolin values in parenthesis): 25 µg/mL; MIC [14]: 3.1 µg/mL; MIC ([14]; sodium salt hydrate): 1.6 µg/mL
2 | CCOP(=O)(O)Cn1nnnc1SCC1=C(C(=O)O)N2C(=O)[C@@H](NC(=O)[C@H](O)c3ccccc3)[C@H]2SC1 [Compound B, 7β-D-mandelamido-3-(1-ethoxyhydroxyphosphinylmethyltetrazol-5-ylthiomethyl)-3-cephem-4-carboxylic acid disodium salt hydrate] | > 200 |  | 6.3 | > 200 | 0.4 | 3.1 | 1.6 | 0.4 | 1.6 | 0.8 | 100 | 1.6 | 0.4 |  |  |  | ED50 ([15]; Mus musculus): 0.39 mg/kg; ED50 ([16]; Escherichia coli, 12140, sc): 1.02 mg/kg; MIC ([8]; E. coli SK 12140, in vitro, cefazolin values in parenthesis, disodium salt hydrate): 0.8 µg/mL; MIC ([11]; cefazolin values in parenthesis, disodium salt hydrate): 50 µg/mL
3 | O=C(O)C1=C(CSc2nnnn2CP(=O)(O)O)CS[C@@H]2[C@H](NC(=O)[C@H](O)c3ccccc3)C(=O)N12 [Compound C, 7β-D-mandelamido-3-(1-phosphonomethyltetrazol-5-ylthiomethyl)-3-cephem-4-carboxylic acid] | > 200 |  | 6.3 (≈ 11.6 µM) | > 200 | 0.8 (≈ 1.47 µM) | 6.3 (≈ 11.6 µM) | 3.1 (≈ 5.71 µM) | 3.1 (≈ 5.71 µM) | 3.1 (≈ 5.71 µM) | 1.6 (≈ 2.95 µM) | 200 (≈ 369 µM) | 0.4 (≈ 0.737 µM) | 1.6 (≈ 2.95 µM) | 0.8 (≈ 1.47 µM) | 50 (≈ 92.2 µM) | 3.1 (≈ 5.71 µM) | 
4 | Cc1nnc(SCC2=C(C(=O)O)N3C(=O)[C@@H](NC(=O)Cn4cnnn4)[C@H]3SC2)s1 [cefazolin, reference compound] |  | 100 (≈ 220 µM) | 0.4 (≈ 0.88 µM) | > 200 | 0.8 (≈ 1.76 µM) |  | 1.6 (≈ 3.52 µM) | 0.8 (≈ 1.76 µM) | 0.4 (≈ 0.88 µM) | 0.8 (≈ 1.76 µM) | 6.3 (≈ 13.9 µM) | 3.1 (≈ 6.82 µM) | 1.6 (≈ 3.52 µM) | 0.8 (≈ 1.76 µM) | 200 (≈ 440 µM) | > 200 | ED50 ([15]; mouse protection, Kleb. pneumo. 4200, subcutaneous, read-out: ED50): 7.2 mg/kg; ED50 ([16]; Escherichia coli, sc, mouse protection, E. coli 12140, subcutaneous, read-out: ED50): 4.4 mg/kg; MIC ([1]; Salmonella ATCC 12176, cefazolin values in parenthesis): 0.4 µg/mL (≈ 0.88 µM); MIC ([3]; Kleb. pneumo. SK 1200, in vitro, cefazolin values in parenthesis): 0.4 µg/mL (≈ 0.88 µM); MIC ([5]; E. coli HH 33779, cefazolin values in parenthesis): 0.8 µg/mL (≈ 1.76 µM); MIC [6]: 100 µg/mL (≈ 220 µM); MIC ([9]; S. aureus SK 23390, in vitro, cefazolin values in parenthesis): 0.2 µg/mL (≈ 0.44 µM); MIC ([13]; ATCC13880, Serratia marc. ATCC 13880, cefazolin values in parenthesis, read-out: MIC): 50 µg/mL (≈ 110 µM)
